# Assay results published in ChEMBL document CHEMBL5385846, “Discovery and development of palmatine analogues as anti-NASH agents by activating farnesoid X receptor (FXR)” (Eur J Med Chem, 2023).
# Activity calls are given as the source filed them. No cut-off for these calls is given here.
# Key:
# [1] = biological target: Collagen alpha-1(I) chain (Homo sapiens) (UniProt P02452); assay: Inhibition of COL1A1 (unknown origin) expressed in human LX2 cells at 20 micromol/L incubated for 48 hrs by Bright-Glo luciferase assay relative to control; format: cell-based; conditions: dose 20.0 µmol/L
# COL1A1 = assay: Selectivity index, ratio of CC50 for cytotoxicity against human LX2 cells to IC50 for inhibition of COL1A1 (unknown origin) expressed in human LX2 cells; format: toxicity, cell-based; conditions: read-out: Ratio CC50/IC50
# [2] = Cytotoxicity against human LX2 cells assessed as inhibition of cell growth; format: toxicity, cell-based, LX-2
# Mus musculus [3] = assay: Hepatoprotective activity in CDAHFD induced C57BL/6N mouse liver injury model assessed as effect on total bilirubin level at 15 mg/kg,po qd administration for 4 weeks; format: functional, organism-based
# Mus musculus [4] = assay: Hepatoprotective activity in CDAHFD induced C57BL/6N mouse liver injury model assessed as effect on ALP level at 15 mg/kg,po qd administration for 4 weeks; format: functional, organism-based
# Mus musculus [5] = assay: Hepatoprotective activity in CDAHFD induced C57BL/6N mouse liver injury model assessed as effect on glucose level at 15 mg/kg,po qd administration for 4 weeks; format: functional, organism-based
# Mus musculus [6] = assay: Hepatoprotective activity in CDAHFD induced C57BL/6N mouse liver injury model assessed as effect on AST level at 15 mg/kg,po qd administration for 4 weeks; format: functional, organism-based
# Mus musculus [7] = assay: Hepatoprotective activity in CDAHFD induced C57BL/6N mouse liver injury model assessed as decrease in total cholesterol at 15 mg/kg,po qd administration for 4 weeks; format: functional, organism-based
# Mus musculus [8] = assay: Hepatoprotective activity in CDAHFD induced C57BL/6N mouse liver injury model assessed as effect on ALT level at 15 mg/kg,po qd administration for 4 weeks; format: functional, organism-based
# Mus musculus [9] = assay: Hepatoprotective activity in CDAHFD induced C57BL/6N mouse liver injury model assessed as effect on LDL level at 15 mg/kg,po qd administration for 4 weeks; format: functional, organism-based
# Mus musculus [10] = assay: Hepatoprotective activity in CDAHFD induced C57BL/6N mouse liver injury model assessed as effect on LDH level at 15 mg/kg,po qd administration for 4 weeks; format: functional, organism-based
# Mus musculus [11] = assay: Hepatoprotective activity in CDAHFD induced C57BL/6N mouse liver injury model assessed as effect on HDL level at 15 mg/kg,po qd administration for 4 weeks; format: functional, organism-based
# Mus musculus [12] = assay: Hepatoprotective activity in CDAHFD induced C57BL/6N mouse liver injury model assessed as decrease in triglyceride level at 15 mg/kg,po qd administration for 4 weeks; format: functional, organism-based
# Collagen alpha-1(I) chain (Homo sapiens), sequence (P02452 whole entry): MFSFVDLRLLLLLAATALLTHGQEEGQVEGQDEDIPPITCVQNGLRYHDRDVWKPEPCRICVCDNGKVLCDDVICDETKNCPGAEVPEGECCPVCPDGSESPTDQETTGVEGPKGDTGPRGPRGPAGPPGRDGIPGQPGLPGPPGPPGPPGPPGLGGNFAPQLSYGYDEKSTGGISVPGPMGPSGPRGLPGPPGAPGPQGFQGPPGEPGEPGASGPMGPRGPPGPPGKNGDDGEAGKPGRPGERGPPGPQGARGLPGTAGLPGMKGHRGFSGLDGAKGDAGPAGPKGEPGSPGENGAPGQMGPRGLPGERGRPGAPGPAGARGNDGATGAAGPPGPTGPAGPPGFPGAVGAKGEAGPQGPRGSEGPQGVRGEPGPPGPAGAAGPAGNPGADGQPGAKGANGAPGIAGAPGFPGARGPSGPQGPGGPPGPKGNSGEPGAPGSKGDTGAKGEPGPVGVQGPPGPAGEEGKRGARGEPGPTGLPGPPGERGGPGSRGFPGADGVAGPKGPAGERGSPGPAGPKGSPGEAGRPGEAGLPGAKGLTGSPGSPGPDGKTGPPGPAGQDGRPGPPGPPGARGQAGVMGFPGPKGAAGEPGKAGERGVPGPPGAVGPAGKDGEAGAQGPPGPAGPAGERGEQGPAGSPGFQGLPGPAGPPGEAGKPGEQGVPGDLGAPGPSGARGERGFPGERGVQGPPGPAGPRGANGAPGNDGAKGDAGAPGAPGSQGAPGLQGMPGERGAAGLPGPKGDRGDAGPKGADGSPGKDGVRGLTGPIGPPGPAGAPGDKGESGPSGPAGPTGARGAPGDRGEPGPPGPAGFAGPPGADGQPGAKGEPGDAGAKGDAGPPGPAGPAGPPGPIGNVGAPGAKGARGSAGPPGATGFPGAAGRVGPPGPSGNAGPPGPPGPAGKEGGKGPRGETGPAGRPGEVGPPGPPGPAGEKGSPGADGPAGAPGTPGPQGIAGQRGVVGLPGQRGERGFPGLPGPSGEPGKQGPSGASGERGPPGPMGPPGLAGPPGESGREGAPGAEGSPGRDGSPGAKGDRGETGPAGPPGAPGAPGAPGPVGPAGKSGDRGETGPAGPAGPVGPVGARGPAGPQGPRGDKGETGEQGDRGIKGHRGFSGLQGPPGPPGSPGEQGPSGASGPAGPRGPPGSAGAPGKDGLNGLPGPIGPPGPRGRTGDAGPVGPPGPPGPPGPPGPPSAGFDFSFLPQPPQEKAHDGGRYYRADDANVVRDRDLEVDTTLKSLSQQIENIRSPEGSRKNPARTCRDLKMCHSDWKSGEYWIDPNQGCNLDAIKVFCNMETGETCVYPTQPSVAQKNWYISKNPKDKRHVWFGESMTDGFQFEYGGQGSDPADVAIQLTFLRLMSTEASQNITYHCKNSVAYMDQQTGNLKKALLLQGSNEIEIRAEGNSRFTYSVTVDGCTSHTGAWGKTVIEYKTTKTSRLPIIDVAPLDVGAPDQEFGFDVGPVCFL
Compound,inhibition [1],further results
CCOc1cc2c(cc1OC)-c1cc3ccc(OC)c(NCc4ccccc4)c3c[n+]1CC2,12.4%,–
CCCNc1c(OC)ccc2cc3[n+](cc12)CCc1cc(OC)c(OC)cc1-3,22.6%,–
COc1cc2c(cc1OC)-c1cc3ccc(OC)c(OCc4ccc(F)cc4)c3c[n+]1CC2,10.9%,–
COc1cc2c(cc1OC)-c1c(Cc3ccc(F)cc3)c3ccc(OC)c(OC)c3c[n+]1CC2,22.6%,–
COc1cc2c(cc1OC)-c1cc3ccc(OC)c(OCc4ccc(C)cc4)c3c[n+]1CC2,25.6%,–
CCCCC(=O)Nc1c(OC)ccc2cc3[n+](cc12)CCc1cc(OC)c(OC)cc1-3,0%,–
COc1cc2c(cc1OC)-c1c(Cc3ccccc3C)c3ccc(OC)c(OC)c3c[n+]1CC2,58.4%,selectivity ratio (COL1A1): 3.21; CC50 [2]: 45.6 µM
COc1cc2c(cc1OC)-c1cc3ccc(OC)c(OCc4ccccc4C#N)c3c[n+]1CC2,23%,–
CCCCCCNc1c(OC)ccc2cc3[n+](cc12)CCc1cc(OC)c(OC)cc1-3,71.4%,–
COc1cc2c(cc1OC)-c1c(Cc3ccc(C(C)C)cc3)c3ccc(OC)c(OC)c3c[n+]1CC2,99.9%,–
COc1cc2c(cc1OC)-c1cc3ccc(OC)c(OC(=O)Cc4ccc(C(F)(F)F)cc4)c3c[n+]1CC2,12.4%,–
COc1cc2c(cc1OC)-c1cc3ccc(OC)c(OCc4ccccn4)c3c[n+]1CC2,15.2%,–
COc1cc2c(cc1OC)-c1cc3ccc(OC)c(OC(C)c4ccccc4)c3c[n+]1CC2 (stereo not given),22.1%,–
COc1cc2c(cc1OC)-c1cc3ccc(OC)c(NC(=O)C4CCCCC4)c3c[n+]1CC2,3.33%,–
COc1ccc(CNc2c(OC)ccc3cc4[n+](cc23)CCc2cc(OC)c(OC)cc2-4)c(OC)c1,36%,–
COc1cc2c(cc1OC)-c1cc3ccc(OC)c(OC(=O)c4ccco4)c3c[n+]1CC2,0%,–
COc1cc2c(cc1OC)-c1cc3ccc(OC)c(OCc4cccc(C#N)c4)c3c[n+]1CC2,24.1%,–
CCOc1cc2c(cc1OC)-c1cc3ccc(OC)c(NCc4ccc(C)cc4)c3c[n+]1CC2,36%,–
CCOc1cc2c(cc1OC)-c1cc3ccc(OC)c(NCc4ccc(F)cc4)c3c[n+]1CC2,24.8%,–
COc1cc2c(cc1OC)-c1c(Cc3cccc(C)c3)c3ccc(OC)c(OC)c3c[n+]1CC2,0%,–
COc1cc2c(cc1OC)-c1cc3ccc(OC)c(NCc4ccc(Br)cc4)c3c[n+]1CC2,18.4%,–
COc1cc2c(cc1OC)-c1c(Cc3cccc(C#N)c3)c3ccc(OC)c(OC)c3c[n+]1CC2,4.38%,–

Compound,inhibition [1],further results
COc1cc2c(cc1OC)-c1cc3ccc(OC)c(OCCc4ccc(C(F)(F)F)cc4)c3c[n+]1CC2,56.3%,selectivity ratio (COL1A1): 6.05; CC50 [2]: 88.9 µM
CCC(=O)Nc1c(OC)ccc2cc3[n+](cc12)CCc1cc(OC)c(OC)cc1-3,0%,–
COc1cc2c(cc1OC)-c1cc3ccc(OC)c(NCc4ccccc4)c3c[n+]1CC2,25.4%,–
COc1cc2c(cc1OC)-c1c(Cc3cccc(Br)c3)c3ccc(OC)c(OC)c3c[n+]1CC2,62.8%,selectivity ratio (COL1A1): 3.06; CC50 [2]: 45.5 µM
COc1cc2c(cc1OC)-c1cc3ccc(OC)c(OCc4ccc(C(C)C)cc4)c3c[n+]1CC2,75%,selectivity ratio (COL1A1): 3.66; CC50 [2]: 28.7 µM
COc1cc2c(cc1OC)-c1c(Cc3cccc([N+](=O)[O-])c3)c3ccc(OC)c(OC)c3c[n+]1CC2,13%,–
COc1cc2c(cc1OC)-c1cc3ccc(OC)c(OCc4ccc(C#N)cc4)c3c[n+]1CC2,5.2%,–
COc1cc2c(cc1OC)-c1cc3ccc(OC)c(OC(=O)C(=O)c4cccnc4)c3c[n+]1CC2,6.07%,–
CC[C@H]1[C@@H](O)[C@@H]2[C@H](CC[C@]3(C)[C@@H]([C@H](C)CCC(=O)O)CC[C@@H]23)[C@@]2(C)CC[C@@H](O)C[C@@H]12,–,Activity (Mus musculus [3]): inactive; Activity (Mus musculus [4]): inactive; Activity (Mus musculus [5]): Active; Activity (Mus musculus [6]): inactive; Activity (Mus musculus [7]): Active; Activity (Mus musculus [8]): inactive; Activity (Mus musculus [9]): inactive; Activity (Mus musculus [10]): inactive; Activity (Mus musculus [11]): inactive; Activity (Mus musculus [12]): Active
COc1cc2c(cc1OC)-c1c(Cc3cccc(F)c3)c3ccc(OC)c(OC)c3c[n+]1CC2,24.8%,–
CCCCCCCCC(=O)Nc1c(OC)ccc2cc3[n+](cc12)CCc1cc(OC)c(OC)cc1-3,16.6%,–
COc1cc2c(cc1OC)-c1cc3ccc(OC)c(NC(=O)c4cccc(F)c4)c3c[n+]1CC2,1.12%,–
CCCC(=O)Nc1c(OC)ccc2cc3[n+](cc12)CCc1cc(OC)c(OC)cc1-3,5.11%,–
COC(=O)C(Oc1c(OC)ccc2cc3[n+](cc12)CCc1cc(OC)c(OC)cc1-3)c1ccccc1 (stereo not given),23.4%,–
COc1cc2c(cc1OC)-c1cc3ccc(OC)c(NCc4cccc(C#N)c4)c3c[n+]1CC2,10.5%,–
COc1ccc(C(=O)Nc2c(OC)ccc3cc4[n+](cc23)CCc2cc(OC)c(OC)cc2-4)cc1,2.39%,–
COc1cc2c(cc1OC)-c1c(Cc3ccc(Br)cc3)c3ccc(OC)c(OC)c3c[n+]1CC2,85.7%,–
COc1cc2c(cc1OC)-c1cc3ccc(OC)c(OCC4CCC4)c3c[n+]1CC2,9.25%,–
CCCCCOc1c(OC)ccc2cc3[n+](cc12)CCc1cc(OC)c(OC)cc1-3,36.7%,–
CCOc1cc2c(cc1OC)-c1cc3ccc(OC)c(NCc4ccc(Br)cc4)c3c[n+]1CC2,8.92%,–
COc1cc2c(cc1OC)-c1cc3ccc(OC)c(OCC4CCCC4)c3c[n+]1CC2,46%,selectivity ratio (COL1A1): 2.65; CC50 [2]: 64 µM
COc1cc2c(cc1OC)-c1cc3ccc(OC)c(NCc4ccc(C)cc4)c3c[n+]1CC2,79.2%,selectivity ratio (COL1A1): 5.82; CC50 [2]: 65.5 µM

Compound,inhibition [1],further results
O=C(O[C@@H]1Cc2c(O)cc(O)cc2O[C@@H]1c1cc(O)c(O)c(O)c1)c1cc(O)c(O)c(O)c1,27.6%,–
COc1cc2c(cc1OC)-c1cc3ccc(OC)c(NC(=O)c4ccccc4)c3c[n+]1CC2,0%,–
CCCCCCCCCOc1c(OC)ccc2cc3[n+](cc12)CCc1cc(OC)c(OC)cc1-3,99.9%,–
COc1cc2c(cc1OC)-c1cc3ccc(OC)c(OCc4ccc(C(F)(F)F)cc4)c3c[n+]1CC2,38.7%,–
COc1cc2c(cc1OC)-c1cc3ccc(OC)c(NC(=O)C4CCC4)c3c[n+]1CC2,18.9%,–
COc1cccc(COc2c(OC)ccc3cc4[n+](cc23)CCc2cc(OC)c(OC)cc2-4)c1,21.4%,–
COc1cc2c(cc1OC)-c1c(Cc3ccccc3C#N)c3ccc(OC)c(OC)c3c[n+]1CC2,24.9%,–
COc1cc2c(cc1OC)-c1cc3ccc(OC)c(OCC4CC4)c3c[n+]1CC2,14%,–
CCCCCCCOc1c(OC)ccc2cc3[n+](cc12)CCc1cc(OC)c(OC)cc1-3,94.4%,–
COc1cc2c(cc1OC)-c1cc3ccc(OC)c(OCc4cc(C)cc(C)c4)c3c[n+]1CC2,25%,–
COc1cc2c(cc1OC)-c1cc3ccc(OC)c(NCc4ccc(Cl)cc4)c3c[n+]1CC2,93.6%,–
COc1cc2c(cc1OC)-c1cc3ccc(OC)c(NC(=O)C4CCCC4)c3c[n+]1CC2,10.8%,–
COc1ccc(COc2c(OC)ccc3cc4[n+](cc23)CCc2cc(OC)c(OC)cc2-4)cc1OC,12.6%,–
COc1cc2c(cc1OC)-c1c(Cc3ccc(C#N)cc3)c3ccc(OC)c(OC)c3c[n+]1CC2,16.3%,–
COC(=O)/C=C/c1ccc(Cc2c3[n+](cc4c(OC)c(OC)ccc24)CCc2cc(OC)c(OC)cc2-3)cc1,0%,–
COc1cc(Cc2c3[n+](cc4c(OC)c(OC)ccc24)CCc2cc(OC)c(OC)cc2-3)cc(OC)c1,39%,–
COc1cc2c(cc1OC)-c1cc3ccc(OC)c(NC(=O)c4cc(C)nn4C)c3c[n+]1CC2,0%,–
COc1cc2c(cc1OC)-c1cc3ccc(OC)c(OC(=O)c4ccoc4C)c3c[n+]1CC2,9.91%,–
COc1cc2c(cc1OC)-c1cc3ccc(OC)c(NCc4ccc(F)cc4)c3c[n+]1CC2,23.7%,–
COc1cc2c(cc1OC)-c1cc3ccc(OC)c(OCc4ccc(Cl)cc4)c3c[n+]1CC2,28.9%,–
